Test results from US20070141120A1, “Peptide having an ace inhibiting effect” (priority 2003, published 2007).
Peptide text beside a SMILES is read from it.

How the values were obtained:
ACE [1] = molecular target: ACE (Homo sapiens, UniProt P12821); test: ACE-inhibition assay 1: enzyme based assay (EBA); format: biochemical; details: substrate Abz-FRK-(Dnp)P-OH, pH 7.0, fluorescence
Method: ACE and a synthetic substrate (Abz-FRK-(Dnp)P-OH) were used in the ACE-inhibition assay performed in white optiplate-96 microplates (Packard Bioscience). The substrate was a kind gift of Adriana K. Carmona (Dept. of Biophysics, Escola Paulista de Medivina, Universidae Federal de Sao Paulo, Brazil). Stock solutions of Abz-FRK-(Dnp)P-OH were prepared in DMSO. […] The assay buffer composition was 100 mM tris/HCl buffer pH 7.0 containing 100 mM NaCl. Forty μl sample solution in assay buffer was added to each well. In case of the controls only buffer was added. The samples were measured in threefold in a fluorophotometer (Fluostar, BMG labtechnologies). […] The ACE activity was measured for 10 cycles (about 10 minutes) by measuring the fluorescence at λex=320 nm and ξem=420 nm. The raw data was converted to the slope/sec and the ACE inhibition activity was calculated using the equation below. ACE inhibition (%)=[1−(Smean−Bmean)/(Cmean−Bmean)]*100
Bmean=average result of background (substrate)

ACE [2] = test: ACE-inhibition assay 2: modified Matsui assay; format: biochemical; details: substrate Hip-His-Leu, pH 8.3, 37° C., 30 min
Method: This ACE inhibition activity was assayed according to the method of Matsui et al. (Matsui, T. et al. (1992) Biosci. Biotech. Biochem. 56: 517-518) with the modifications described below.
For each sample 75 μl 3 mM hippuryl histidine leucine (Hip-His-Leu, Sigma chemicals Co.; the chemical was dissolved in 250 mM Borate containing 200 mM NaCl, pH 8.3); 20 μl 0.1 U/ml ACE (obtained at Sigma) or H2O, and 25 μl sample or H2O were mixed (see Table 1). The mixtures were incubated at 37° C. and stopped after 30 min by adding 125 μl 0.5 M HCl. Subsequently, 225 μl bicine/NaOH solution (1 M NaOH:0.25 M bicine (4:6)) was added, followed by 25 μl 0.1 M TNBS (2,4,6-Trinitrobenzenesulfonic acid, Fluka, Switzerland; in 0.1 M Na2HPO4). After incubation for 20 min. at 37° C., 4 ml 4 mM Na2SO3 in 0.2 M NaH2PO4 was added and the absorbance at 416 nm was measured with UV/Vis spectrophotometer (Shimadzu UV-1601 with a CPS controller, Netherlands).
The amount of ACE inhibition (ACEI) activity was calculated as a percentage of inhibition compared with the conversion rate of ACE in the absence of an inhibitor: ACEI (%)=(((C1−C2)−(S1−S2))/(C1−C2))*100 (1)
C1=Absorbance without ACE inhibitory component (=max. ACE activity) [AU].
C2=Absorbance without ACE inhibitory component and without ACE (background) [AU].
S1=Absorbance in the presence of ACE and the ACE inhibitory component [AU].
S2=Absorbance in the presence of the ACE inhibitory component, but without ACE [AU].

[3] = Stability during exposure to human serum (LC-MS); details: 37° C., up to 360 min, peptide mixtures
Method: Samples of 1.5 ml were collected in eppendorf vials at each of the time points. […] Samples were subsequently incubated for 5 min at 100° C. and then centrifugated in an IEC Micromax RF centrifuge (Boom BV Meppel) at 10.000 rpm for 20 minutes. The supernatant was collected in eppendorf vials and stored at −20° C. for further analysis. Experiments were performed in triplicate.
(§1) All measurements were carried out on a Waters Quattro-II or Quattro-Ultima triple quadrupole mass spectrometer. The LC separation was carried out at 25° C. on a Inertsil 5 ODS3 column, 150×2.1 mm, packed with 3 μm particles (Chompack) using 0-50% acetonitrile/0.1% (v/v) TFA. For analyses, 5 μl sample was injected onto the column. The flow rate through the column was 0.2 ml/min. The total flow after post-column makeup was 0.05 ml/min and contained a 7/3 (v/v) mixture of propionic acid and propanol-2. Gradient effluent was analysed using MRM mass spectrometry in positive-ESI mode. Capillary voltage was 4 kV. Source and nebulizer temperature were 100° C. and 250° C., repsectively. Drying and nebuliser gas flow were 300 l/h and 17 l/h, respectively. Collision gas was argon at a pressure of 7.9 e-4 mbar.

HUVEC cells = test: Stability during exposure to HUVEC cells (LC-MS); details: up to 120 min, peptide mixtures
Caco-2 cells = test: Stability during exposure to Caco-2 cells (LC-MS); details: up to 360 min, peptide mixtures
Method: Caco-2 cells were obtained from American Type Culture Collection (ATCC) and used in experiments at passage 30-40. Cells were cultured in 75 cm^2 culture flasks (Corning Costar, Badhoevedorp, The Netherlands). The culture medium consisted of DMEM (high glucose, with L-glutamine) supplemented with 20% (v/v) foetal bovine serum, 1% (v/v) penicillin/streptomycin solution and 1% (v/v) NEAA. Cells were maintained at 37° C. in a humidified atmosphere of 5% CO2 in air. For stability experiments, cells were seeded on 12 well cell culture plates (Costar, Badhoevedorp, The Netherlands) and cultured for at least 21 days.
Cells were cultured in 12-well plates. Peptide mixtures were added to culture medium without foetal bovine serum, but containing 20% (v/v) solid phase extracted foetal bovine serum. […] For Caco-2 cells, 330 μl medium containing 0.1, 1 and 10 μg/ml peptide was added to each well of the culture plate. Three times 110 μl medium was collected at 0, 5, 10, 20, 30, 60, 90, 180 and 360 min of incubation. Experiments were performed in triplicate and all samples were directly placed on dry-ice and stored at −20° C. […] Wells without cells served as controls.
as §1

[4] = In vitro gastrointestinal digestion (GI conditions); details: simulated gastric fluid pH 3.5 60 min, then intestinal fluid pH 6.8 120 min, 37° C.
Method: The stability of peptides in the human gastrointestinal tract was studied by subjecting fermented or hydrolysed milk proteins to typical conditions in the stomach and small intestine. Gastric conditions were mimicked by dissolving 80 ml fermented or hydrolysed milk protein in 820 ml water contianing 2.0 g NaCl, 2.9 g pepsin and 0.45 g Amano Lipase F-AP15 from Rhizopus oryzae. The fluid was adjusted to pH 3.5 with HCl, stirred with a peddle (50 rpm) and kept at 37° C. for 60 min. […] The simulated intestinal fluid was stirred with a peddle (50 rpm) and kept at 37° C. for 120 min. Samples were collected at different time points during the in vitro gastrointestinal digestion. After collection, samples were directly heated at 95° C. for 30 min and subsequently stored at −20° C.

[5] = in sour milk, hypertensive humans, placebo-controlled; cited from earlier work

ACE (Homo sapiens, UniProt P12821), sequence (P12821 30-1306, species assumed): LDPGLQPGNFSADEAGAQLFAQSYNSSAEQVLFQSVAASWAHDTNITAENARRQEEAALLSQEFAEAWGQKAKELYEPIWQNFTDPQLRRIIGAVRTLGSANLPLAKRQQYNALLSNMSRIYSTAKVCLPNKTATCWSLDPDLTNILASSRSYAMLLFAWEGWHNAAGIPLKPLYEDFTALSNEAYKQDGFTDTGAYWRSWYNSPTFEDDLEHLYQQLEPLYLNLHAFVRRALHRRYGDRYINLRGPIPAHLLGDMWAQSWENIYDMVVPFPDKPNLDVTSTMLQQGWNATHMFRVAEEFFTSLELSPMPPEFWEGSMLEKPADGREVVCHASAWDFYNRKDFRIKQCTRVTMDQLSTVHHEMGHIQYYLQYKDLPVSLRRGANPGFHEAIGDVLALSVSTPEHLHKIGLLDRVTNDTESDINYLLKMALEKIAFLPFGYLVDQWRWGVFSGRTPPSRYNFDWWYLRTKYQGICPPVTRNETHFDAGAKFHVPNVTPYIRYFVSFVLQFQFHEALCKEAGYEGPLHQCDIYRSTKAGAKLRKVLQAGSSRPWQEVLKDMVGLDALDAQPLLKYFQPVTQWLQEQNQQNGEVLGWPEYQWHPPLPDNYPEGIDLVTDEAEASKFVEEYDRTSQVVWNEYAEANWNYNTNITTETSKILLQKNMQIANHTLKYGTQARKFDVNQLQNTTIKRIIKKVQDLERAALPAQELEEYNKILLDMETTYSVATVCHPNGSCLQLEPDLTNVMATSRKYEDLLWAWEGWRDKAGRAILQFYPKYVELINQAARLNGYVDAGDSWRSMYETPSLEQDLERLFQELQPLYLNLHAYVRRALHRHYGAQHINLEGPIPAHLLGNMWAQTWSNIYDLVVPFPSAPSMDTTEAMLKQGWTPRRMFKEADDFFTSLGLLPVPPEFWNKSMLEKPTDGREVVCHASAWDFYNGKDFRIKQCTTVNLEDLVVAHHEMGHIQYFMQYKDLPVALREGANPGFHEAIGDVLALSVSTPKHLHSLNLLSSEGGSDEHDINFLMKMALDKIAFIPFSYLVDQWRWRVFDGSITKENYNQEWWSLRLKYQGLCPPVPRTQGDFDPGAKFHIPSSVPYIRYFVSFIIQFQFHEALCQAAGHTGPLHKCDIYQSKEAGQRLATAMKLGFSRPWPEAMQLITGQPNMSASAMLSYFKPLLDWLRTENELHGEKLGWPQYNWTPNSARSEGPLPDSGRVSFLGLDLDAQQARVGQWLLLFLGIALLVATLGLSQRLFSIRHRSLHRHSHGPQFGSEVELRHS

IC50 (ACE [1]) | IC50 (ACE [2]) | Stability, Serum [3] | Stability, HUVEC (HUVEC cells) | Stability, Caco-2 (Caco-2 cells) | Stability, GI conditions [4] | Structure (SMILES) | Blood pressure effect [5]
5 µM | 4 µM |  |  |  |  | N[C@@H](CS)C(=O)N1CCC[C@H]1C(=O)N1CCC[C@H]1C(=O)O [CPP] (H-Cys-Pro-Pro-OH; N-terminus and C-terminus assumed) | 
20 µM | 10 µM | + | − | +/− |  | N[C@@H](Cc1ccccc1)C(=O)N[C@@H](Cc1ccc(O)cc1)C(=O)O [FY] (H-Phe-Tyr-OH; N-terminus and C-terminus assumed) | 
 |  | +/− | + | − | + | CC[C@H](C)[C@H](N)C(=O)N1CCC[C@H]1C(=O)N1CCC[C@H]1C(=O)O [IPP] | blood pressure lowering effect
> 50 µM |  |  |  |  |  | NCCCC[C@H](N)C(=O)N1CCC[C@H]1C(=O)N1CCC[C@H]1C(=O)O [KPP] (H-Lys-Pro-Pro-OH; N-terminus and C-terminus assumed) | 
10 µM | 7 µM | +/− | + | − |  | CSCC[C@H](N)C(=O)N1CCC[C@H]1C(=O)N1CCC[C@H]1C(=O)O [MPP] (H-Met-Pro-Pro-OH; N-terminus and C-terminus assumed) | 
> 50 µM |  | − | +/− | − |  | CC[C@H](C)[C@H](NC(=O)[C@@H]1CCCN1)C(=O)N1CCC[C@H]1C(=O)O [PIP] (H-Pro-Ile-Pro-OH; N-terminus and C-terminus assumed) | 
> 50 µM |  | − | +/− | − |  | CC(C)C[C@H](NC(=O)[C@@H]1CCCN1)C(=O)N1CCC[C@H]1C(=O)O [PLP] (H-Pro-Leu-Pro-OH; N-terminus and C-terminus assumed) | 
35 µM | 15 µM | +/− | + | + |  | C[C@@H](O)[C@H](N)C(=O)N1CCC[C@H]1C(=O)N1CCC[C@H]1C(=O)O [TPP] (H-Thr-Pro-Pro-OH; N-terminus and C-terminus assumed) | 
4 µM | 1 µM | − | − | − |  | CC(C)[C@H](N)C(=O)N[C@@H](C)C(=O)N1CCC[C@H]1C(=O)O [VAP] (H-Val-Ala-Pro-OH; N-terminus and C-terminus assumed) | 
 |  | +/− | − | +/− |  | CC(C)[C@H](N)C(=O)N[C@@H](Cc1ccccc1)C(=O)O [VF] (H-Val-Phe-OH; N-terminus and C-terminus assumed) | 
 |  |  |  |  |  | CC(C)[C@H](N)C(=O)N1CCC[C@H]1C(=O)N1CCC[C@H]1C(=O)O [VPP] | blood pressure lowering effect

Structure (SMILES) | IC50 (ACE [1]) | IC50 (ACE [2]) | Stability, Serum [3] | Stability, HUVEC (HUVEC cells) | Stability, Caco-2 (Caco-2 cells) | Stability, GI conditions [4] | Blood pressure effect [5]
CC(C)C[C@H](NC(=O)[C@@H](NC(=O)[C@@H](N)CCCCN)C(C)C)C(=O)N1CCC[C@H]1C(=O)N[C@H](C(=O)N1CCC[C@H]1C(=O)O)C(C)C [KVLPVP] (H-KVLPVP-OH; N-terminus and C-terminus assumed) |  | 2 µM | − | − | − |  | 
